Residues, ends and D or L forms follow the SMILES beside them. *: point of attachment. Lauroyl = CCCCCCCCCCCC(=O)*
Experiments:
[1] = Procedure: Adult male Sprague-Dawley rats weighing 350 to 400 g underwent midline neck incision with exposure of internal jugular vein. Targeted nanofiber 2.5 mg was dissolved in 1.0 mL of HBBS and injected within the internal jugular vein using 25 G needle. After complete injection, needle was withdrawn, pressure held at the injection site for 1 minute and the neck incision was closed. Rats were euthanized at 10, 15, 30, 60 min, 4, 16 hours, 4 and 6 days post injection and viscera (liver, lung, kidney and spleen) were harvested.
Carotid arteries and viscera were harvested after in-situ perfusion-fixation with PBS (250 mL) and placed in 2% paraformaldehyde overnight.

[2] = Small angle X-ray scattering (SAXS) of nanostructures; type: physicochemical
Procedure: Small angle X-ray scattering (SAXS) experiments were performed at the Advanced Photon Source, Argonne National Laboratory. The X-ray energy (15 keV) was selected using a double-crystal monochromator with a 30 mm offset. Samples were dissolved at a concentration of 5 mM in PBS and placed in 1.5 mm quartz capillary tubes. The typical incident X-ray flux on the sample was ˜1×10^12 photons/s with a 0.2×0.3 mm^2 collimator, and samples were exposed for 4 s. The 1D scattering profiles were obtained by azimuthal integration of the 2D patterns, with scattering from the capillaries and PBS buffer subtracted as background. Scattering profiles were then plotted on a relative scale as a function of the scattering vector q=(4π/λ) sin(θ/2), where θ is the scattering angle.

Compound	earliest time fluorescence present within the kidneys ([1]; 2.5 mg internal jugular vein) [min]	fluorescence in the kidneys over time ([1]; 2.5 mg internal jugular vein)	fluorescence in the liver over time ([1]; 2.5 mg internal jugular vein)	latest time fluorescence present within the kidneys ([1]; 2.5 mg internal jugular vein) [days]	fluorescence within the liver and kidneys ([1]; 2.5 mg internal jugular vein, 10 min to 6 days)	fluorescence in the brain, heart, intestine and lungs ([1]; any of the time points)	self-assembly by SAXS [2]
CCCCCCCCCCCC(=O)NCCCC[C@H](NC(=O)[C@@H](NC(=O)[C@@H](NC(=O)[C@H](C)NC(=O)[C@H](C)NC(=O)[C@H](CCCCN)NC(=O)[C@H](CCCCN)NC(=O)[C@H](CS)NC(=O)[C@H](CCCCN)NC(=O)[C@@H]1CCCN1C(=O)[C@H](CC(C)C)NC(=O)[C@H](Cc1c[nH]c2ccccc12)NC(=O)[C@@H](NC(=O)[C@H](CC(C)C)NC(=O)[C@@H](N)CCCCN)C(C)C)C(C)C)C(C)C)C(=O)O [targeted nanofiber, KLVWLPKCK2A2V2K(C12)] (H-KLVWLPKCKKAAVVK(Lauroyl)-OH; N-terminus and C-terminus assumed)	10	increasing fluorescence	Decreasing fluorescence	6	Fluorescence was observed	no fluorescence detected	
KLWVLPKC							did not display any evidence of self-assembly

Source: patent US9517275B2, “Targeted therapy for the prevention of restenosis in the cardiovascular system” (Northwestern University, priority 2013, dated 2016)
